This note sets out measurements from patent publication US20220033360A1, “OPHTHALMIC COMPOSITIONS AND METHODS FOR THE TREATMENT OF SKIN DISEASES AND EYE DISEASES” (Cellix Bio Private Limited, priority 2018, published 2022).

Read-outs that look alike come from different tables or passages of the source.

Assay [1] deals with 5-LO. The assay is described as follows: Lipoxygenase inhibitor screening assay, cell-free, 5-LO with linoleic acid as substrate. In kind it is biochemical. On the procedure: (§1) CLX-162C-C01 in concentrations ranging from 0.001 to 1.2 mM was added to 5-LO or 15-LO in the screening assay buffer, respectively, and the LO inhibitor screening assay was immediately started by addition of the corresponding substrates and running for 5 min. The inhibitory capacity of CLX-162C-C01 against lipoxygenases was studied in a cell-free system consisting of CLX-162C-C01 and 5-LO or 15-LO together with appropriate substrates, respectively.

In assay [2] the target is human 5-HT2B receptors (Homo sapiens, UniProt P41595). The assay is described as follows: 5-HT2B agonist assay, intracellular calcium (Fluo-3, FLIPR) in HEK-293 cells. In kind it is cell-based. Particulars: HEK-293 cells expressing human 5-HT2B. On the procedure: 5-HT2B receptors stably expressing HEK-293 cells were maintained in Dulbecco's modified Eagle's medium (DMEM) supplemented with 10% fetal bovine serum and 250 microgm·mL-1 G-418. HEK-293 cells expressing human 5-HT2B receptors were seeded in […] poly-D-lysine coated plates at a density of 50,000 cells·well-1 in DMEM containing 10% (v.v-1) dialyzed fetal bovine serum and 250 microgm·mL-1 G-418. After overnight incubation, the cells were washed three times with Hank's buffered saline solution containing 2 mM CaCl2), 10 mM HEPES and 2.5 mM probenecid. The cells were incubated with 2 microM Fluo-3 AM in Hank's buffered saline solution for 60 min at 37 C. The Fluo-3 loaded cells were then washed four times with Hank's buffered saline solution. Agonist-induced changes in intracellular calcium concentrations were determined at room temperature using a Fluorometric Imaging Plate Reader.
human 5-HT2B receptors, sequence (P41595 whole entry): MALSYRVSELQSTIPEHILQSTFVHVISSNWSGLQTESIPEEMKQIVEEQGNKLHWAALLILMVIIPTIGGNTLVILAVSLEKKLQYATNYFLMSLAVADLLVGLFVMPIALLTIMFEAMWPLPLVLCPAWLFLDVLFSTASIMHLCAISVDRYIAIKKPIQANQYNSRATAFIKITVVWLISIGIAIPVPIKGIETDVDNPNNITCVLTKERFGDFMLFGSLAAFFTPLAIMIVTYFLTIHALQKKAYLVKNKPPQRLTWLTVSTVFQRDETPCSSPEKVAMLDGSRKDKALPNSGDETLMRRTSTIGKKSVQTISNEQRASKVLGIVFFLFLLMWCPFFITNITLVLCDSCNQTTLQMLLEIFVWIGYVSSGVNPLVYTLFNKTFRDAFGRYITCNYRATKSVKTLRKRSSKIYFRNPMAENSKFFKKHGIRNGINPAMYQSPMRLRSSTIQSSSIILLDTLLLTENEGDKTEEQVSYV

Assay [3] deals with 15-LO. The assay is described as follows: Lipoxygenase inhibitor screening assay, cell-free, 15-LO with arachidonic acid as substrate. Format: biochemical. Particulars: concentrations from 0.32 to 0.93 mM. The method, then: as §1
Assay [4] can be described thus: Oxidative capacity of UCP (oxidation of methionine to methionine sulfoxide), cell-free. The following applies: 0.1 to 10 mM, preincubation 60 min, methionine sulfoxide formation. The method, then:
The influence of CLX-162C-C01 on the oxidative capacity of UCP was studied by preincubating UCP (2 mg/ml H2O) with various concentrations of CLX-162C-C01 (0.1, 1, and 10 mM) for 60 min at room temperature in parallel with the controls. To assay the oxidative capacity of UCP, aliquots of 50 microlit (100 microgm UCP) of particle suspension taken from the preincubations were suspended in 1 ml H2O and incubated in the presence of 100 microM methionine for 2 h at 25° C. Formation of methionine sulfoxide was measured fluorometrically after precolumn derivatization with o-phthaldialdehyde and HPLC. […] The oxidative potential of the particles was subsequently determined by their capacity to oxidize […] sulfoxide. […] CLX-162C-C01 antioxidative potency to prevent the oxidation of methionine by agglomerates of ultrafine carbon particles (UCPs). Particulate stimulants such as UCP and zymosan activate lipid mediator synthesis and to induce oxidative stress in macrophages.

In general, EC50 refers to the concentration that produces a half-maximal response.

Regarding `Cc1cc(C(C)(C)C)c(O)c(C)c1CC1=NCCN1` [CLX-162C-C01, 2-(4-(tert-butyl)-3-hydroxy-2,6-dimethylbenzyl)-4,5-dihydro-1Himidazol-1-ium (R)-5-(1,2-dithiolan-3-yl) pentanoate], the “inhibition of the activity of 5-LO” value in assay [1] (concentrations from 0.32 to 0.93 mM) was “strongly inhibited”. Further, the IC50 in assay [1] (linoleic acid substrate, 5 min, read-out: 50% inhibition of 5-LO) came out at 320000 nM. The EC50 in assay [2] (read-out: EC50, 5-HT2B agonist effect) is 14.2 nM; in assay [2] (read-out: pEC50 (-log EC50), 5-HT2B agonist effect (converted)), 490 nM. Moreover, the “inhibition of the activity of 15-LO” value in assay [3] is listed as “only marginally affected”. For the same compound, the “effect on oxidative capacity of UCP” value in assay [4] is recorded as “did not reduce”.
